Tested on: 695427-040-R-J1-PDC complex spheroid viability
Assay: Anticancer human tumor 695427-040-R-J1-PDC patient-derived colon adenocarcinoma cell line growth inhibition [POLQ]
Details: for IC50: curve of first compound; for viability, T/C: stronger effect = lower value
Method in brief: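 Growth inhibition in 3D: complex spheroids (tumor PDC, HUVEC, MSC) treated with POLQ inhibitor combinations; where Cmax unknown, highest tested concentration 10 microM, except SN-38 at 1 microM.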
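Also: spheroids exposed to compounds for seven days.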
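For viability, T/C in this document: 100% = DMSO vehicle control viability.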

For `O=C(Nc1ccc(O)c(NS(=O)(=O)c2ccc(F)cc2)c1)c1ccc(-c2ccccc2)cc1` + COC1C(OC(N)=O)C(O)C(Oc2ccc3c(O)c(NC(=O)c4ccc(O)c(CC=C(C)C)c4)c(=O)oc3c2C)OC1(C)C, the IC50 (second compound 0.0316 µM) was > 10 µM, the IC50 (second compound 0.1 µM) was > 10 µM and the IC50 (second compound 0.316 µM) was > 10 µM. The IC50 (second compound 1 µM) was > 10 µM, the IC50 (second compound 3.16 µM) was > 10 µM and the IC50 (second compound 10 µM) was > 10 µM. It also gave a viability, T/C (second compound 0.0316 µM, first compound 0.0316 µM) of 104%, a viability, T/C (second compound 0.0316 µM, first compound 0.1 µM) of 97.7% and a viability, T/C (second compound 0.0316 µM, first compound 0.316 µM) of 105%. It also gave a viability, T/C (second compound 0.0316 µM, first compound 1 µM) of 103%, a viability, T/C (second compound 0.0316 µM, first compound 3.16 µM) of 103% and a viability, T/C (second compound 0.0316 µM, first compound 10 µM) of 89.3%. For the same compound, the viability, T/C (second compound 0.1 µM, first compound 0.0316 µM) was 116%, the viability, T/C (second compound 0.1 µM, first compound 0.1 µM) was 99.9% and the viability, T/C (second compound 0.1 µM, first compound 0.316 µM) was 106%. For the same compound, the viability, T/C (second compound 0.1 µM, first compound 1 µM) was 102%, the viability, T/C (second compound 0.1 µM, first compound 3.16 µM) was 103% and the viability, T/C (second compound 0.1 µM, first compound 10 µM) was 95.8%. It also gave a viability, T/C (second compound 0.316 µM, first compound 0.0316 µM) of 103%, a viability, T/C (second compound 0.316 µM, first compound 0.1 µM) of 103% and a viability, T/C (second compound 0.316 µM, first compound 0.316 µM) of 110%. For the same compound, the viability, T/C (second compound 0.316 µM, first compound 1 µM) was 105%, the viability, T/C (second compound 0.316 µM, first compound 3.16 µM) was 104% and the viability, T/C (second compound 0.316 µM, first compound 10 µM) was 104%. It also gave a viability, T/C (second compound 1 µM, first compound 0.0316 µM) of 110%, a viability, T/C (second compound 1 µM, first compound 0.1 µM) of 107% and a viability, T/C (second compound 1 µM, first compound 0.316 µM) of 107%. It also gave a viability, T/C (second compound 1 µM, first compound 1 µM) of 106%, a viability, T/C (second compound 1 µM, first compound 3.16 µM) of 108% and a viability, T/C (second compound 1 µM, first compound 10 µM) of 90.8%. For the same compound, the viability, T/C (second compound 3.16 µM, first compound 0.0316 µM) was 108%, the viability, T/C (second compound 3.16 µM, first compound 0.1 µM) was 101% and the viability, T/C (second compound 3.16 µM, first compound 0.316 µM) was 102%. The viability, T/C (second compound 3.16 µM, first compound 1 µM) was 110%, the viability, T/C (second compound 3.16 µM, first compound 3.16 µM) was 115% and the viability, T/C (second compound 3.16 µM, first compound 10 µM) was 89.7%. It also gave a viability, T/C (second compound 10 µM, first compound 0.0316 µM) of 104%, a viability, T/C (second compound 10 µM, first compound 0.1 µM) of 100% and a viability, T/C (second compound 10 µM, first compound 0.316 µM) of 112%. The viability, T/C (second compound 10 µM, first compound 1 µM) was 105%, the viability, T/C (second compound 10 µM, first compound 3.16 µM) was 114% and the viability, T/C (second compound 10 µM, first compound 10 µM) was 88.3%.
In the case of `CC(=O)O[C@H]1C(=O)[C@@]2(C)[C@H]([C@H](OC(=O)c3ccccc3)[C@]3(O)C[C@H](OC(=O)[C@H](O)[C@@H](NC(=O)c4ccccc4)c4ccccc4)C(C)=C1C3(C)C)[C@]1(OC(C)=O)CO[C@@H]1C[C@@H]2O` + Cc1cccc(N(C)C(=O)C2C(O)CCN2c2nc(C)cc(C(F)(F)F)c2C#N)c1, the IC50 (second compound 0.0316 µM) is reported as > 3 µM, the IC50 (second compound 0.1 µM) is reported as > 3 µM and the IC50 (second compound 0.316 µM) is reported as > 3 µM. The IC50 (second compound 1 µM) was > 3 µM, the IC50 (second compound 3.16 µM) was > 3 µM and the IC50 (second compound 10 µM) was > 3 µM. The viability, T/C (second compound 0.0316 µM, first compound 0.00949 µM) was 96.5%, the viability, T/C (second compound 0.0316 µM, first compound 0.03 µM) was 102% and the viability, T/C (second compound 0.0316 µM, first compound 0.0949 µM) was 96.3%. It also gave a viability, T/C (second compound 0.0316 µM, first compound 0.3 µM) of 98.9%, a viability, T/C (second compound 0.0316 µM, first compound 0.949 µM) of 94.7% and a viability, T/C (second compound 0.0316 µM, first compound 3 µM) of 77.9%. For the same compound, the viability, T/C (second compound 0.1 µM, first compound 0.00949 µM) was 112%, the viability, T/C (second compound 0.1 µM, first compound 0.03 µM) was 106% and the viability, T/C (second compound 0.1 µM, first compound 0.0949 µM) was 91.8%. It also gave a viability, T/C (second compound 0.1 µM, first compound 0.3 µM) of 95.3%, a viability, T/C (second compound 0.1 µM, first compound 0.949 µM) of 98.3% and a viability, T/C (second compound 0.1 µM, first compound 3 µM) of 79.7%. The viability, T/C (second compound 0.316 µM, first compound 0.00949 µM) was 111%, the viability, T/C (second compound 0.316 µM, first compound 0.03 µM) was 94.8% and the viability, T/C (second compound 0.316 µM, first compound 0.0949 µM) was 95%. For the same compound, the viability, T/C (second compound 0.316 µM, first compound 0.3 µM) was 89.5%, the viability, T/C (second compound 0.316 µM, first compound 0.949 µM) was 104% and the viability, T/C (second compound 0.316 µM, first compound 3 µM) was 78.7%. For the same compound, the viability, T/C (second compound 1 µM, first compound 0.00949 µM) was 102%, the viability, T/C (second compound 1 µM, first compound 0.03 µM) was 93.3% and the viability, T/C (second compound 1 µM, first compound 0.0949 µM) was 91.9%. For the same compound, the viability, T/C (second compound 1 µM, first compound 0.3 µM) was 98.3%, the viability, T/C (second compound 1 µM, first compound 0.949 µM) was 101% and the viability, T/C (second compound 1 µM, first compound 3 µM) was 73.1%. For the same compound, the viability, T/C (second compound 3.16 µM, first compound 0.00949 µM) was 97.4%, the viability, T/C (second compound 3.16 µM, first compound 0.03 µM) was 94.2% and the viability, T/C (second compound 3.16 µM, first compound 0.0949 µM) was 91.8%. For the same compound, the viability, T/C (second compound 3.16 µM, first compound 0.3 µM) was 88.8%, the viability, T/C (second compound 3.16 µM, first compound 0.949 µM) was 97% and the viability, T/C (second compound 3.16 µM, first compound 3 µM) was 80.6%. For the same compound, the viability, T/C (second compound 10 µM, first compound 0.00949 µM) was 91.3%, the viability, T/C (second compound 10 µM, first compound 0.03 µM) was 83.9% and the viability, T/C (second compound 10 µM, first compound 0.0949 µM) was 87.9%. For the same compound, the viability, T/C (second compound 10 µM, first compound 0.3 µM) was 85.1%, the viability, T/C (second compound 10 µM, first compound 0.949 µM) was 94.8% and the viability, T/C (second compound 10 µM, first compound 3 µM) was 84.2%.
